Key:
[1] = target: human GRPR (Homo sapiens, UniProt P30550); experiment: biochemical
Method: Competition binding assays for DB7, DB13 and DB14 were performed in PC-3 cell membranes.
Competition binding experiments of DB7, […] against [^125 I][I-Tyr^4]BBN were conducted in PC-3 cell membranes. Increasing concentrations of tested peptide (10^−13–10^−5 M) were mixed with the radioligand (40,000 cpm per assay tube, at a 50 pM concentration) and the membrane homogenate in a total volume of 300 μL binding buffer (pH 7.4, 50 mM HEPES, 1% BSA, 5.5 mM MgCl2, 35 μM bacitracin). Triplicates of each concentration point were incubated for 60 min at 22 °C in an Incubator-Orbital Shaker unit (MPM Instr. SrI, Bernareggio, MI, Italy). The incubation was interrupted by adding ice-cold washing buffer (10 mM HEPES pH 7.4, 150 mM NaCl), followed by rapid filtration over glass fiber filters (Whatman GF/B, presoaked in binding buffer) on a Brandel Cell Harvester (Adi Hassel Ingenieur Büro, Munich, Germany). Filters were washed with cold washing buffer and were counted for their radioactivity content in an automated well-type gamma counter [NaI(Tl) 3″ crystal, Canberra Packard Cobra Quantum series instrument]. The 50% inhibitory concentration (IC50) values were calculated by nonlinear regression according to a one-site model applying the PRISM 6 program (Graph Pad Software, San Diego, CA, USA) and are expressed as mean ± SD of three experiments performed in triplicate.

[2] = system: PC-3 cells; experiment: Radiotracer uptake (internalized + membrane bound) in PC-3 cells; assay type: cell-based, human; conditions: 1 h incubation at 37 °C, % of total added radioactivity, mean ± SD of 3 experiments
Method: The uptake of [^99mTc]Tc-DB7, [^99mTc]Tc-DB13, and [^99mTc]Tc-DB14 in PC-3 cells is compared in Figure 3. In all cases, the bulk of radioactivity was found on the membrane of PC-3 cells with only a small portion detected within the cells, consistent with a noninternalizing radioantagonist profile.
Figure 3 Specific uptake of [^99mTc]Tc-DB7 (pink bars), [^99mTc]Tc-DB13 (violet bars) and [^99mTc]Tc-DB14 (gray bars) in PC-3 cells after 1 h incubation at 37 °C (checkered bars: internalized, solid bars: membrane bound fractions); results represent the mean ± SD of 3 experiments performed in triplicate.
For internalization assays with [^99mTc]Tc-DB7, [^99mTc]Tc-DB13, and [^99mTc]Tc-DB14, PC-3 cells were seeded in six well plates (≈1 × 10^6 cells per well) 24 h before the experiment. […] Nonspecific internalization was determined by a parallel triplicate series containing 1 μM [Tyr^4]BBN. […] Sample radioactivity was measured on the gamma counter and the percentage, of specific internalized and membrane-bound fractions were calculated with Microsoft Excel (after subtracting nonspecific from overall internalized and membrane-bound counts). Results represent specific internalized ± SD of total added radioactivity per well from three experiments performed in triplicate.

Chain of human GRPR (P30550 whole entry): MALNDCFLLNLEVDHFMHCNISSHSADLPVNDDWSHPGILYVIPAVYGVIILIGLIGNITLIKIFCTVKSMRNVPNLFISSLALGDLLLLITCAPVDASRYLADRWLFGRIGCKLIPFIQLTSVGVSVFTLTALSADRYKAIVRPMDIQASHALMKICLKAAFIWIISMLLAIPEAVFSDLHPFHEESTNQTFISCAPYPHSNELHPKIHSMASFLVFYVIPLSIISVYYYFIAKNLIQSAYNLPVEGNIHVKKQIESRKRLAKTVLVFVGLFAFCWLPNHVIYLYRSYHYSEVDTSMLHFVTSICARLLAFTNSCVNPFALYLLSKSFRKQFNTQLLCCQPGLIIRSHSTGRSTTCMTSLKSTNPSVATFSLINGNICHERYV

Compound	IC50 [1] [nM]	Specific cell uptake [2] [%]
CCNC(=O)[C@H](CC(C)C)NC(=O)[C@H](Cc1c[nH]cn1)NC(=O)CNC(=O)[C@@H](NC(=O)[C@H](C)NC(=O)[C@H](Cc1c[nH]c2ccccc12)NC(=O)[C@H](CCC(N)=O)NC(=O)[C@@H](Cc1ccccc1)NC(=O)CCOCCOCCOCCOCCNC(=O)C(CNCCN)CNCCN)C(C)C [DB14, [N4-PEGx-DPhe^6,Leu-NHEt^13]BBN(6-13)]	1.18 ± 0.09	
CCNC(=O)[C@H](CC(C)C)NC(=O)[C@H](Cc1c[nH]cn1)NC(=O)CNC(=O)[C@@H](NC(=O)[C@H](C)NC(=O)[C@H](Cc1c[nH]c2ccccc12)NC(=O)[C@H](CCC(N)=O)NC(=O)[C@@H](Cc1ccccc1)NC(=O)CCOCCOCCOCCNC(=O)C(CNCCN)CNCCN)C(C)C [DB13, [N4-PEGx-DPhe^6,Leu-NHEt^13]BBN(6-13)]	1.03 ± 0.01	
[^99mTc]Tc-[N4-PEGx-DPhe^6,Leu-NHEt^13]BBN(6-13) [[^99mTc]Tc-DB7]		2.6 ± 0.5
CCNC(=O)[C@H](CC(C)C)NC(=O)[C@H](Cc1c[nH]cn1)NC(=O)CNC(=O)[C@@H](NC(=O)[C@H](C)NC(=O)[C@H](Cc1c[nH]c2ccccc12)NC(=O)[C@H](CCC(N)=O)NC(=O)[C@@H](Cc1ccccc1)NC(=O)COCCOCCNC(=O)C(CNCCN)CNCCN)C(C)C [DB7, [N4-PEGx-DPhe^6,Leu-NHEt^13]BBN(6-13)]	0.93 ± 0.01	
